Test results published in paper PMC12691669, “Inhibitors of the 20S proteasome β5 subunit as potent and selective agents against Trichomonas vaginalis” (Antimicrobial Agents and Chemotherapy, 2025).
“Also recorded” adds a separate entry of the source.

Experiments:
[1] = system: T. vaginalis strain F1623; assay: 24 h growth and survival assay (ATP luminescence, GI50); format: cell-based, Trichomonas vaginalis; conditions: for SI (ratio of GI50 in HeLa cells over GI50 in T. vaginalis): T. vaginalis F1623 vs human HeLa cells
Description: The following T. vaginalis strains were used: F1623 ([50]), G3 (ATCC PRA-98), and LA1 ([25]). […] Drug susceptibility assays were performed as described previously ([23]) with several minor modifications. Briefly, 10 mM stocks of the test compounds in DMSO were serially diluted 1:3 using an Echo 650 Acoustic Liquid Handler (Beckman Coulter). Subsequently, trophozoites (5 × 10^3/well) in TYM modified media were added to the wells in 384-well plates, and cultures were incubated for 24 h at 37°C under anaerobic conditions (AnaeroPack-Anaero System; Remel). For testing in mammalian cells, the following cell lines were used: Human cervical cancer cells HeLa (ATCC CCL-2), non-transformed mouse fibroblast cell line 3T3-L1 (ATCC CL-173), normal monkey kidney epithelial cell line Vero (ATCC CCL-81), and human B lymphoma cells Raji (ATCC CCL-86). Test compounds were serially diluted (1:3) and added to mammalian cell cultures grown in 384-well plates, and cultures were incubated for 48 h at 37°C in 5% CO2, 95% air. Growth and viability of T. vaginalis and mammalian cells were determined with an ATP assay by adding the BacTiter-Glo Microbial Cell Viability Assay reagent (Promega) directly to the wells and measuring ATP-dependent luminescence in a microplate reader. […] Experiments were repeated at least three times, and the mean and SEM of the pGI50 values were calculated.

[2] = target: T. vaginalis Tv20S proteasome β1 subunit (Trichomonas vaginalis, UniProt A2E7Z2); assay: In vitro proteasome assay, Ac-RYFD-amc substrate; format: biochemical; conditions: recombinant Tv20S, mean ± SD of three experiments
Description: (§1) The T. vaginalis proteasome was expressed in recombinant form as previously described ([27]). Briefly, Spodoptera frugiperda cells were co-infected with three baculovirus vectors carrying the T. vaginalis genes for the 7 α-subunits, 7 β-subunits, and the Ump-1 chaperone, respectively. The resulting proteasome complex was purified from cell lysates via streptavidin column and size exclusion chromatography and stored at −80°C. Purified human c20S proteasome and recombinant human proteasome activator PA28α ([21]) were obtained from Bio-Techne and stored at −80°C. Dilutions of the test agents were transferred to 384-well plates (Greiner Bio-One) in triplicate wells using an Echo 650 Acoustic Liquid Handler (Beckman Coulter). Six replicate plates were prepared for each compound for testing with three T. vaginalis-optimized substrates and three human-optimized substrates. After dispensing, plates were sealed and stored at −20°C. The following fluorescent substrates and final substrate concentrations were used to assay subunit activities of the T. vaginalis proteasome (Tv20S) ([28]) or the human constitutive proteasome (c20S) ([19], [52]): Ac-RYFD-amc (Genscript) at 100 µM for Tv20S β1 subunit, Ac-FRSR-amc (Genscript) at 20 µM for Tv20S β2 subunit, Ac-GWYL-amc (Genscript) at 20 µM for Tv20S β5 subunit, z-LLE-amc (R&D Systems) at 80 µM for c20S β1 subunit, z-VLR-amc (AdipoGen Life Sciences) at 30 µM for c20S β2 subunit, and suc-LLVY-amc (R&D Systems) at 65 µM for c20S β5 subunit. Substrates and proteasomes were diluted in an assay buffer consisting of HEPES pH 7.5 and 1 mM DTT. For the human proteasome assays, 2 nM c20S was incubated at room temperature with 200 nM PA28α for 1 h to activate the complex prior to addition to the 384-well plates containing the substrate-inhibitor mixtures. […] Both proteasomes were added to the wells at a 1 nM final assay concentration. Fluorescence was measured over 4 h at 360 nm excitation and 460 nm emission on a Biotek Synergy HTX plate reader.

[3] = system: T. vaginalis Tv20S proteasome β2 subunit; assay: In vitro proteasome assay, Ac-FRSR-amc substrate; format: biochemical, Trichomonas vaginalis; conditions: recombinant Tv20S, mean ± SD of three experiments
Description: as §1

[4] = target: T. vaginalis Tv20S proteasome β5 subunit (Trichomonas vaginalis, UniProt A2DD57+A2F716); assay: biochemical; format: biochemical; conditions: recombinant Tv20S, mean ± SD of three experiments; for IC50: read-out: Tv20S proteasome inhibition of β5 subunit (IC50)
Description: as §1

[5] = target: T1, Human c20S proteasome β1 subunit (Homo sapiens, UniProt P28072+Q99436); assay: In vitro proteasome assay, z-LLE-amc substrate; format: biochemical; conditions: purified human c20S with PA28α, mean ± SD
T1 construct: purchased Bio-Techne
Description: as §1

[6] = target: T2, Human c20S proteasome β2 subunit (Homo sapiens, UniProt P49720+Q99436); assay: In vitro proteasome assay, z-VLR-amc substrate; format: biochemical; conditions: purified human c20S with PA28α, mean ± SD
T2 construct: purchased Bio-Techne
Description: as §1

[7] = target: T3, Human c20S proteasome β5 subunit (Homo sapiens, UniProt P20618+P28074); assay: In vitro proteasome assay, suc-LLVY-amc substrate; format: biochemical; conditions: purified human c20S with PA28α, mean ± SD; for IC50: read-out: Human c20S proteasome inhibition of β5 subunit (IC50)
T3 construct: purchased Bio-Techne
Description: as §1

[8] = system: β5 proteasome subunit in live T. vaginalis F1623 (compared to human HeLa cells); assay: Fluorescence gel assay of proteasome subunit targeting in live cells; format: cell-based, Trichomonas vaginalis; conditions: 3 h incubation, gel densitometry, T. vaginalis F1623 vs HeLa
Description: T. vaginalis F1623 and human HeLa cells were incubated for 3 h with proteasome inhibitors at a range of concentrations or with solvent as a control. Cells were lysed by three consecutive freeze/thaw cycles in a buffer of 50 mM HEPES, pH 7.5, 10 µM E64, 100 µM AEBSF, 10 µM RR11a, 1 µM Pepstatin, and 1 mM DTT. Protein concentrations were measured with the Pierce BCA assay (Thermo Scientific) and adjusted to 5 mg/mL. Samples were incubated with 2 µM Me4BodipyFL-Ahx3Leu3VS ([53]) at 2.5 mg/mL protein concentration for 24 h at 37°C. […] Band intensities were quantified using ImageJ (NIH). Each peak corresponding to a protein band was selected, and the area under the curve was determined after subtraction of the intensity in an adjacent area outside of the respective band. For closely spaced bands, the midpoint between the peaks of two bands was used to separate the areas. Band intensities were normalized to the respective controls, not incubated with inhibitors.

[9] = system: ubiquitin-conjugated proteins in T. vaginalis F1623; assay: Immunoblot analysis of ubiquitin labeling; format: cell-based, Trichomonas vaginalis; conditions: 3 h treatment, 30× GI50
Description: Protein concentrations were measured using the Pierce BCA assay (Thermo Scientific) and adjusted to 10 mg/mL. Proteins were fractionated on SDS-PAGE, transferred onto a nitrocellulose membrane (Bio-Rad), which was blocked with 5% non-fat dry milk in TBST buffer (20 mM Tris base, 150 mM NaCl, 0.05% Tween 20, pH adjusted to 7.6 with HCl) for 1 h and probed with primary anti-ubiquitin antibody (Proteintech, 10201-2-AP) at a 1:2,000 dilution, followed by incubation with anti-rabbit horseradish peroxidase (HRP)-conjugated IgG (Jackson laboratory) at a 1:5,000 dilution. HRP labeling was visualized by chemiluminescence (Immobilon, Millipore).

[10] = system: human cell line HeLa; assay: 48 h cytotoxicity (growth and viability) assay in mammalian cells; format: cell-based
Description: The following T. vaginalis strains were used: F1623 ([50]), G3 (ATCC PRA-98), and LA1 ([25]). Parasites were grown at 37°C in TYM Diamond’s medium supplemented with 180 µM ferrous ammonium sulfate ([51]). Drug susceptibility assays were performed as described previously ([23]) with several minor modifications. Briefly, 10 mM stocks of the test compounds in DMSO were serially diluted 1:3 using an Echo 650 Acoustic Liquid Handler (Beckman Coulter). Subsequently, trophozoites (5 × 10^3/well) in TYM modified media were added to the wells in 384-well plates, and cultures were incubated for 24 h at 37°C under anaerobic conditions (AnaeroPack-Anaero System; Remel). For testing in mammalian cells, the following cell lines were used: Human cervical cancer cells HeLa (ATCC CCL-2), non-transformed mouse fibroblast cell line 3T3-L1 (ATCC CL-173), normal monkey kidney epithelial cell line Vero (ATCC CCL-81), and human B lymphoma cells Raji (ATCC CCL-86). […] Growth and viability of T. vaginalis and mammalian cells were determined with an ATP assay by adding the BacTiter-Glo Microbial Cell Viability Assay reagent (Promega) directly to the wells and measuring ATP-dependent luminescence in a microplate reader. […] Experiments were repeated at least three times, and the mean and SEM of the pGI50 values were calculated.

[11] = parameters: method as in PMID 30380863, PMID 36969170; conditions: at therapeutic concentrations; cited from earlier work

Sequence of T. vaginalis Tv20S proteasome β5 subunit (A2DD57 entry or part of it): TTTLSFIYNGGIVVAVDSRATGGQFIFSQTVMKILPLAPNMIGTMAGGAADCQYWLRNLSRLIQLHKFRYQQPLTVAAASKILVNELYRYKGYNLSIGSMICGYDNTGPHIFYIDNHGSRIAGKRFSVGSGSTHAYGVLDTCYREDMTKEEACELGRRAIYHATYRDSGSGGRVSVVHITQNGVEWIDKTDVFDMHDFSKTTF
Sequence of T. vaginalis Tv20S proteasome β5 subunit (A2F716 entry or part of it): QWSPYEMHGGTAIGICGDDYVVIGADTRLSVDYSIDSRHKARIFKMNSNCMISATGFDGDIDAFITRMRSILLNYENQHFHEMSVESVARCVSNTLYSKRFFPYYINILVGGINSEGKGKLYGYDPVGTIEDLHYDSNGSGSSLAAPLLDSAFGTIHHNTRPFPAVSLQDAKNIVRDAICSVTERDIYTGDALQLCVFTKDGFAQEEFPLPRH
Sequence of T. vaginalis Tv20S proteasome β1 subunit (A2E7Z2 entry or part of it): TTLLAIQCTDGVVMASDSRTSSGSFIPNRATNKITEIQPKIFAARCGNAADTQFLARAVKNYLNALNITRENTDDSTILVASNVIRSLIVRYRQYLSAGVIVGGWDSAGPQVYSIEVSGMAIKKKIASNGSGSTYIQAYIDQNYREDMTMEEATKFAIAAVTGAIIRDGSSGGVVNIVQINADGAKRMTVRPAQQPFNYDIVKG

SMILES | SI (ratio of GI50 in HeLa cells over GI50 in T. vaginalis) [1] | Tv20S proteasome inhibition of β1 subunit (IC50) [2] | Tv20S proteasome inhibition of β2 subunit (IC50) [3] | IC50 [4] | Human c20S proteasome inhibition of β1 subunit (IC50) [5] | Human c20S proteasome inhibition of β2 subunit (IC50) [6] | IC50 [7] | β5 inactivated in T. vaginalis at lower concentrations compared to human cells [8] | abundance of ubiquitin-labeled proteins [9] | growth inhibitory activity against T. vaginalis (in words) ([1]; F1623) | growth inhibitory activity against human cells (in words) [10] | Tv20S proteasome inhibition of β5 subunit (IC50) [4] | Human c20S proteasome inhibition of β5 subunit (IC50) [7] | effect on T-dependent antibody responses or number of circulating lymphocytes [11]
CCCCCC(=O)NC(CC(=O)NC(CCCC)C(=O)NC(Cc1ccccc1)C(=O)C1(C)CO1)CC(=O)OC(C)(C)C (stereo not drawn) [compound 8] | 218.8 | Activation | No inhibition | 0.0437 ± 0.0123 µM | No inhibition | No inhibition | 4.1 µM | 22 fold | accumulation of ubiquitinated proteins | – | – | – | – | –
COc1ccc(CC(NC(=O)C(C)NC(=O)OCc2ccccc2)C(=O)NC(Cc2ccccc2)C(=O)C2(C)CO2)cc1 (stereo not drawn) [compound 12] | 63.1 | Activation | No inhibition | 0.0206 ± 0.00539 µM | No inhibition | No inhibition | 0.379 ± 0.0612 µM | 12 fold | accumulation of ubiquitinated proteins | – | – | – | – | –
COc1ccc(C[C@H](NC(=O)[C@H](C)NC(=O)C2=C(C)c3ccccc3C2)C(=O)N[C@@H](Cc2ccc(-c3ccccc3)cc2)C(=O)[C@@]2(C)CO2)cc1 [compound 20] | 16.2 | Activation | No inhibition | 0.0441 ± 0.00671 µM | No inhibition | No inhibition | 0.0394 ± 0.00476 µM | – | – | – | – | – | – | –
COc1ccc(C[C@H](NC(=O)[C@H](C)NC(=O)C2=C(C)c3ccccc3C2)C(=O)N[C@@H](Cc2ccccc2)C(=O)[C@]2(C)CO2)cc1 [compound 22] | 16.6 | Activation | No inhibition | 0.0605 ± 0.0081 µM | No inhibition | No inhibition | 0.0848 ± 0.0202 µM | – | – | – | – | – | – | –
C=C(C)C(=O)[C@H](Cc1ccccc1)NC(=O)[C@H](Cc1ccc(OC)cc1)NC(=O)[C@H](C)NC(=O)C1=C(C)c2ccccc2C1 [compound 104] | 1.05 | did not inhibit; also recorded: No inhibition | did not inhibit; also recorded: No inhibition | – | no inhibitory activity; also recorded: No inhibition | no inhibitory activity; also recorded: No inhibition | – | – | – | only minimally inhibitory | only minimally inhibitory | did not inhibit; also recorded: No inhibition | no inhibitory activity; also recorded: No inhibition | –
COc1ccc([C@@H](O)[C@H](NC(=O)[C@H](C)NC(=O)CN2CCOCC2)C(=O)N[C@@H](CC2=CCCC2)C(=O)[C@@]2(C)CO2)cc1 [zetomipzomib, (2 S,3 R)-N-((S)-3-(Cyclopent-1-en-1-yl)-1-((R)-2-methyloxiran-2-yl)-1-oxopropan-2-yl)-3-hydroxy-3-(4-methoxyphenyl)-2-((S)-2-(2-morpholinoacetamido)propanamido)propenamide] | – | – | – | – | – | – | – | – | – | – | – | – | – | did not significantly affect
